US20060276464A1, “Diarylsulfone sulfonamides and use thereof” (Wyeth, priority 2005, published 2006)
pEC50, pIC50: −log10 of the molar value.

Key:
SFRP-1 [1] = target: T1, SFRP-1 (Homo sapiens, UniProt Q8N474); assay: Fluorescence polarization binding assay (competitive displacement of a probe compound from SFRP-1); details: fluorescence anisotropy, 45 nM SFRP-1, 20 nM probe;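 further: test compound competes with a fluorescent probe held by SFRP-1, seen as a drop in probe anisotropy after incubation in darkness, with anisotropy as function of rising compound dose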
T1 sequence (Q8N474 32-314): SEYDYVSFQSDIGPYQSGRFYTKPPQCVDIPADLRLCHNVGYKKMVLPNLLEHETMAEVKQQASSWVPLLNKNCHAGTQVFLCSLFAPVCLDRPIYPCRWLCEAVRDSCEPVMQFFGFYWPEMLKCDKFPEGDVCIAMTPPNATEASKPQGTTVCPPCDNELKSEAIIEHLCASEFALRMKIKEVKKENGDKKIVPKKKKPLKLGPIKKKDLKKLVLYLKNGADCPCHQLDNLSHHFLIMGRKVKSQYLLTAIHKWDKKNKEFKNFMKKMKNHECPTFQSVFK

SFRP-1 [2] = target: T1, SFRP-1; assay: Cell-based assay for in vitro measurement of SFRP-1/SARP2 antagonist activity (U2OS cells co-transfected with 16x TCF-tk-Luciferase reporter, Wnt and hSFRP-1);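 further: U2OS cells co-transfected with a TCF-tk luciferase reporter, a Wnt vector, hSFRP-1 or empty vector and CMV-βgal, luciferase luminescence read in cell lysates alongside βgal activity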

SMILES	pIC50 (SFRP-1 [1])	pEC50 (SFRP-1 [2])
O=C(c1ccnc(N2CCCC2)c1)N1CCC(NS(=O)(=O)c2cc(S(=O)(=O)c3ccccc3)ccc2C(F)(F)F)CC1 [Example 1029, 5-(phenylsulfonyl)-N-[1-(2-pyrrolidin-1-ylisonicotinoyl)piperidin-4-yl]-2-(trifluoromethyl)benzenesulfonamide]	6.85	6.31
O=S(=O)(NCc1ccc(Cl)nc1)c1cc(S(=O)(=O)c2ccccc2)ccc1C(F)(F)F [Example 1030, N-[(6-chloropyridin-3-yl)methyl]-5-(phenylsulfonyl)-2-(trifluoromethyl)benzenesulfonamide]	6.30	5.95
O=S(=O)(NCc1ccc(N2CCCC2)nc1)c1cc(S(=O)(=O)c2ccccc2)ccc1C(F)(F)F [Example 1032, 5-(phenylsulfonyl)-N-[(6-pyrrolidin-1-ylpyridin-3-yl)methyl]-2-(trifluoromethyl)benzenesulfonamide]	6.30	5.84
O=S(=O)(NCc1ccc(N2CCOCC2)nc1)c1cc(S(=O)(=O)c2ccccc2)ccc1C(F)(F)F [Example 1033, N-[(6-morpholin-4-ylpyridin-3-yl)methyl]-5-(phenylsulfonyl)-2-(trifluoromethyl)benzenesulfonamide]	6.30	5.82
O=S(=O)(NC1CCNCC1)c1cc(S(=O)(=O)c2cccc(Br)c2)ccc1C(F)(F)F [Example 1034, 5-[(3-bromophenyl)sulfonyl]-N-piperidin-4-yl-2-(trifluoromethyl)benzenesulfonamide]	6.30	5.78
CN(CCNS(=O)(=O)c1cc(S(=O)(=O)c2ccccc2)ccc1C(F)(F)F)C(=O)c1ccc(CP(=O)(O)O)cc1 [Example 1036, [4-({methyl[2-({[5-(phenylsulfonyl)-2-(trifluoromethyl)phenyl]sulfonyl}amino)ethyl]amino}carbonyl)benzyl]phosphonic acid]	6.10	5.12
C[C@H](C(N)=O)N1CCC(NS(=O)(=O)c2cc(S(=O)(=O)c3ccccc3)ccc2C(F)(F)F)CC1 [Example 1038, (2R)-2-[4-({[5-(phenylsulfonyl)-2-(trifluoromethyl)phenyl]sulfonyl}amino)piperidin-1-yl]propanamide]	7.00	6.48
C[C@@H](C(N)=O)N1CCC(NS(=O)(=O)c2cc(S(=O)(=O)c3ccccc3)ccc2C(F)(F)F)CC1 [Example 1039, (2S)-2-[4-({[5-(phenylsulfonyl)-2-(trifluoromethyl)phenyl]sulfonyl}amino)piperidin-1-yl]propanamide]	6.40	6.61
O=C(c1ccc(=O)[nH]c1)N1CCC(NS(=O)(=O)c2cc(S(=O)(=O)c3ccccc3)ccc2C(F)(F)F)CC1 [Example 1040, N-{1-[(6-oxo-1,6-dihydropyridin-3-yl)carbonyl]piperidin-4-yl}-5-(phenylsulfonyl)-2-(trifluoromethyl)benzenesulfonamide]	6.85	6.66
COc1ccc2c(c1)C(O)C(NS(=O)(=O)c1cc(S(=O)(=O)c3ccccc3)ccc1C(F)(F)F)C2 (stereo not drawn) [Example 1044, N-(1-hydroxy-6-methoxy-2,3-dihydro-1H-inden-2-yl)-5-(phenylsulfonyl)-2-(trifluoromethyl)benzenesulfonamide]	6.30	5.87
CC(C)(C)OC(=O)N1CCC(NC(=O)NCCNS(=O)(=O)c2cc(S(=O)(=O)c3ccccc3)ccc2C(F)(F)F)CC1 [Example 1046, tert-butyl 4-[({[2-({[5-(phenylsulfonyl)-2-(trifluoromethyl)phenyl]sulfonyl}amino)ethyl]amino}carbonyl)amino]piperidine-1-carboxylate]	6.10	5.46
CSc1ccc(C(=O)N2CCC(NS(=O)(=O)c3cc(S(=O)(=O)c4ccccc4)ccc3C(F)(F)F)CC2)cc1 [Example 1050, N-{1-[4-(methylthio)benzoyl]piperidin-4-yl}-5-(phenylsulfonyl)-2-(trifluoromethyl)benzenesulfonamide]	6.77	6.18
C[S+]([O-])c1ccc(C(=O)N2CCC(NS(=O)(=O)c3cc(S(=O)(=O)c4ccccc4)ccc3C(F)(F)F)CC2)cc1 (stereo not drawn) [Example 1052, N-{1-[4-(Methylsulfinyl)benzoyl]piperidin-4-yl}-5-(phenylsulfonyl)-2-(trifluoromethyl)benzenesulfonamide]	7.05	6.81
COC(=O)CN1CCC(NS(=O)(=O)c2cc(S(=O)(=O)c3ccccc3)ccc2C(F)(F)F)CC1 [Example 1063, methyl [4-({[5-(phenylsulfonyl)-2-(trifluoromethyl)phenyl]sulfonyl)amino)piperidin-1-yl]acetate]	6.85	6.34
CC(C)(C)OC(=O)N1CCC(NS(=O)(=O)c2cc(S(=O)(=O)c3ccc(C(=O)O)cc3)ccc2C(F)(F)F)CC1 [Example 1066, 4-{[3-({[1-(tert-butoxycarbonyl)piperidin-4-yl]amino}sulfonyl)-4-(trifluoromethyl)phenyl]sulfonyl}benzoic acid]	6.62	6.21

The next molecules have a higher pIC50 (SFRP-1 [1]) than those just listed; values first:

pIC50 (SFRP-1 [1])	pEC50 (SFRP-1 [2])	SMILES
7.22	7.06	COC(=O)COc1ccc2c(c1)CC(NS(=O)(=O)c1cc(S(=O)(=O)c3ccccc3)ccc1C(F)(F)F)C2 (stereo not drawn) [Example 1028, methyl{[2-({[5-(phenylsulfonyl)-2-(trifluoromethyl)phenyl]sulfonyl}amino)-2,3-dihydro-1H-inden-5-yl]oxy}acetate]
7.70	7.07	O=C(O)COc1ccc2c(c1)CC(NS(=O)(=O)c1cc(S(=O)(=O)c3ccccc3)ccc1C(F)(F)F)C2 (stereo not drawn) [Example 1031, {[2-({[5-(phenylsulfonyl)-2-(trifluoromethyl)phenyl]sulfonyl}amino)-2,3-dihydro-1H-inden-5-yl]oxy}acetic acid]
7.10	5.42	COC(=O)c1ccc2c(c1)CC(NS(=O)(=O)c1cc(S(=O)(=O)c3ccccc3)ccc1C(F)(F)F)C2 (stereo not drawn) [Example 1037, methyl 2-({[5-(phenylsulfonyl)-2-(trifluoromethyl)phenyl]sulfonyl}amino)indane-5-carboxylate]
7.40	6.72	CSCCC(=O)N1CCC(NS(=O)(=O)c2cc(S(=O)(=O)c3ccccc3)ccc2C(F)(F)F)CC1 [Example 1053, N-{1-[3-(methylthio)propanoyl]piperidin-4-yl}-5-(phenylsulfonyl)-2-(trifluoromethyl)benzenesulfonamide]
7.40	6.14	C[S+]([O-])CCC(=O)N1CCC(NS(=O)(=O)c2cc(S(=O)(=O)c3ccccc3)ccc2C(F)(F)F)CC1 (stereo not drawn) [Example 1054, N-{1-[3-(methylsulfinyl)propanoyl]piperidin-4-yl}-5-(phenylsulfonyl)-2-(trifluoromethyl)benzenesulfonamide]
7.30	7.02	CC(C)(C)OC(=O)N1CSC[C@H]1C(=O)N1CCC(NS(=O)(=O)c2cc(S(=O)(=O)c3ccccc3)ccc2C(F)(F)F)CC1 [Example 1055, tert-butyl (4R)-4-{[4-({[5-(phenylsulfonyl)-2-(trifluoromethyl)phenyl]sulfonyl}amino)piperidin-1-yl]carbonyl}-1,3-thiazolidine-3-carboxylate]
7.40	6.53	O=C([C@@H]1CSCN1)N1CCC(NS(=O)(=O)c2cc(S(=O)(=O)c3ccccc3)ccc2C(F)(F)F)CC1 [Example 1056, 5-(phenylsulfonyl)-N-{1-[(4R)-1,3-thiazolidin-4-ylcarbonyl]piperidin-4-yl}-2-(trifluoromethyl)benzenesulfonamide]
7.70	7.11	CC(C)(C)OC(=O)N1C[S+]([O-])C[C@H]1C(=O)N1CCC(NS(=O)(=O)c2cc(S(=O)(=O)c3ccccc3)ccc2C(F)(F)F)CC1 (stereo partly drawn) [Example 1061, tert-butyl (4R)-4-{[4-({[5-(phenylsulfonyl)-2-(trifluoromethyl)phenyl]sulfonyl}amino)piperidin-1-yl]carbonyl}-1,3-thiazolidine-3-carboxylate 1-oxide]
8.00	7.47	NC(=O)COc1ccc2c(c1)CC(NS(=O)(=O)c1cc(S(=O)(=O)c3ccccc3)ccc1C(F)(F)F)C2 (stereo not drawn) [Example 1062, 2-{[2-({[5-(phenylsulfonyl)-2-(trifluoromethyl)phenyl]sulfonyl}amino)-2,3-dihydro-1H-inden-5-yl]oxy}acetamide]
7.22	6.71	CC(=O)N1CC[C@@H](C(=O)N2CCC(NS(=O)(=O)c3cc(S(=O)(=O)c4ccccc4)ccc3C(F)(F)F)CC2)C1 [Example 1064, N-(1-{[(3R)-1-acetylpyrrolidin-3-yl]carbonyl}piperidin-4-yl)-5-(phenylsulfonyl)-2-(trifluoromethyl)benzenesulfonamide]
7.30	6.78	CC(=O)N1CC[C@H](C(=O)N2CCC(NS(=O)(=O)c3cc(S(=O)(=O)c4ccccc4)ccc3C(F)(F)F)CC2)C1 [Example 1065, N-(1-{[(3S)-1-acetylpyrrolidin-3-yl]carbonyl}piperidin-4-yl)-5-(phenylsulfonyl)-2-(trifluoromethyl)benzenesulfonamide]
7.52	6.94	CS(=O)(=O)N1CCC[C@H]1C(=O)N1CCC(NS(=O)(=O)c2cc(S(=O)(=O)c3ccccc3)ccc2C(F)(F)F)CC1 [Example 1075, N-{1-[1-(methylsulfonyl)-L-prolyl]piperidin-4-yl}-5-(phenylsulfonyl)-2-(trifluoromethyl)benzenesulfonamide]
